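96-well plates; 48 h exposure; 5 concentrations. Endpoints by linear interpolation between flanking doses. Not reached: highest tested concentration assigned. The concentration for full growth arrest is given as TGI.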
How the values were obtained:
Assay in all cases: NCI tumour cell line growth inhibition, 48 h
[1] = tested on: HCT-116 colon
[2] = tested on: OVCAR-8 ovarian
[3] = tested on: A549 NSCLC
[4] = tested on: HOP-62 NSCLC
[5] = tested on: 786-0 renal
[6] = tested on: CCRF-CEM leukemia
[7] = tested on: NCI-H226 lung
[8] = tested on: K-562 leukemia
[9] = tested on: DLD-1 colon
[10] = tested on: NCI-H460 lung
[11] = tested on: RPMI-8226 leukemia
[12] = tested on: NCI-H23 lung
[13] = tested on: OVCAR-4 ovarian
[14] = tested on: MOLT-4 leukemia
[15] = tested on: M19-MEL melanoma
[16] = tested on: CAKI-1 renal
[17] = tested on: SNB-19 CNS
[18] = tested on: HOP-18 NSCLC
[19] = tested on: OVCAR-5 ovarian
[20] = tested on: NCI-H522 lung
[21] = tested on: HL-60(TB) leukemia
[22] = tested on: HOP-92 NSCLC
[23] = tested on: SK-MEL-28 melanoma
[24] = tested on: DMS 114 small cell lung
[25] = tested on: KM12 colon
[26] = tested on: SR leukemia
[27] = tested on: SK-MEL-2 melanoma
[28] = tested on: HT29 colon
[29] = tested on: RXF 393 renal
[30] = tested on: KM20L2 colon
[31] = tested on: UACC-257 melanoma
[32] = tested on: SNB-78 CNS
[33] = tested on: MALME-3M melanoma
[34] = tested on: TK-10 renal
[35] = tested on: XF 498 CNS
[36] = tested on: IGROV1 ovarian
[37] = tested on: EKVX NSCLC
[38] = tested on: U251 CNS
[39] = tested on: SF-295 CNS
[40] = tested on: OVCAR-3 ovarian
[41] = tested on: A498 renal
[42] = tested on: SK-OV-3 ovarian
[43] = tested on: ACHN renal
[44] = tested on: SF-268 CNS
[45] = tested on: SW-620 colon
[46] = tested on: SK-MEL-5 melanoma
[47] = tested on: SNB-75 CNS
[48] = tested on: UO-31 renal
[49] = tested on: UACC-62 melanoma
[50] = tested on: HCC-2998 colon
[51] = tested on: SF-539 CNS
[52] = tested on: M14 melanoma
[53] = tested on: SN12C renal
[54] = tested on: HCT-15 colon
[55] = tested on: COLO 205 colon
[56] = tested on: LOX IMVI melanoma
[57] = tested on: LXFL 529 NSCLC
[58] = tested on: DMS 273 small cell lung

Compound: O=C1C(Cl)C(c2cc(Br)ccc2O)N1n1cnc2ccccc2c1=O (configuration not stated)
- TGI [1]: 33.3 µM
- TGI [2]: > 100 µM
- TGI [3]: > 100 µM
- TGI [4]: > 100 µM
- TGI [5]: > 100 µM
- TGI [6]: > 100 µM
- TGI [7]: 39.1 µM
- TGI [8]: > 47.3 µM
- TGI [9]: > 100 µM
- TGI [10]: 60.5 µM
- TGI [11]: 43.7 µM
- TGI [12]: > 71 µM
- TGI [13]: > 82.7 µM
- TGI [14]: 29 µM
- TGI [15]: 35.1 µM
- TGI [16]: > 94.3 µM
- TGI [17]: > 62.9 µM
- TGI [18]: 45.5 µM
- TGI [19]: > 100 µM
- TGI [20]: > 51.5 µM
- TGI [21]: 16.4 µM
- TGI [22]: 71.1 µM
- TGI [23]: > 78.2 µM
- TGI [24]: 28.2 µM
- TGI [25]: > 100 µM
- TGI [26]: > 36.9 µM
- TGI [27]: > 100 µM
- TGI [28]: > 100 µM
- TGI [29]: > 100 µM
- TGI [30]: > 100 µM
- TGI [31]: 49.1 µM
- TGI [32]: > 93.9 µM
- TGI [33]: 70.1 µM
- TGI [34]: > 100 µM
- TGI [35]: > 100 µM
- TGI [36]: > 92.7 µM
- TGI [37]: 27.8 µM
- TGI [38]: > 100 µM
- TGI [39]: > 100 µM
- TGI [40]: > 82.1 µM
- TGI [41]: > 100 µM
- TGI [42]: > 100 µM
- TGI [43]: > 95.2 µM
- TGI [44]: > 55 µM
- TGI [45]: > 100 µM
- TGI [46]: > 86.8 µM
- TGI [47]: 71.4 µM
- TGI [48]: > 56.3 µM
- TGI [49]: > 68 µM
- TGI [50]: 65.9 µM
- TGI [51]: > 100 µM
- TGI [52]: 27.6 µM
- TGI [53]: > 100 µM
- TGI [54]: > 100 µM
- TGI [55]: > 100 µM
- TGI [56]: > 100 µM
- TGI [57]: > 100 µM
- TGI [58]: > 73.2 µM

Compound: COc1ccc2c(c1)[n+](=O)c(C(=O)C/C(=N/NC(=O)c1ccccc1O)C(=O)Nc1ccc(Cl)c(C(F)(F)F)c1)c(C)n2[O-]
- TGI [1]: > 100 µM
- TGI [2]: > 100 µM
- TGI [3]: > 100 µM
- TGI [4]: > 100 µM
- TGI [5]: > 100 µM
- TGI [6]: > 100 µM
- TGI [7]: > 100 µM
- TGI [8]: > 100 µM
- TGI [9]: > 100 µM
- TGI [10]: > 100 µM
- TGI [12]: > 100 µM
- TGI [13]: > 100 µM
- TGI [14]: > 100 µM
- TGI [15]: > 100 µM
- TGI [17]: > 100 µM
- TGI [18]: > 100 µM
- TGI [19]: > 100 µM
- TGI [20]: > 100 µM
- TGI [22]: > 100 µM
- TGI [23]: > 100 µM
- TGI [24]: > 100 µM
- TGI [25]: > 100 µM
- TGI [27]: > 100 µM
- TGI [28]: > 100 µM
- TGI [29]: > 100 µM
- TGI [30]: > 100 µM
- TGI [31]: > 100 µM
- TGI [32]: > 100 µM
- TGI [33]: > 100 µM
- TGI [34]: > 100 µM
- TGI [35]: > 100 µM
- TGI [36]: > 100 µM
- TGI [37]: > 100 µM
- TGI [38]: > 100 µM
- TGI [39]: > 100 µM
- TGI [40]: 87.1 µM
- TGI [41]: > 100 µM
- TGI [42]: > 100 µM
- TGI [43]: > 100 µM
- TGI [44]: > 100 µM
- TGI [45]: > 100 µM
- TGI [46]: > 100 µM
- TGI [47]: > 100 µM
- TGI [48]: 50.5 µM
- TGI [49]: > 100 µM
- TGI [50]: > 100 µM
- TGI [51]: > 100 µM
- TGI [52]: > 100 µM
- TGI [53]: > 100 µM
- TGI [54]: > 100 µM
- TGI [55]: > 100 µM
- TGI [56]: > 100 µM
- TGI [57]: > 100 µM
- TGI [58]: > 100 µM

Compound: CC1(C)O[C@@H](CC/C=C/CO)[C@H](CC/C=C/CO)O1
- TGI [1]: > 100 µM
- TGI [2]: > 100 µM
- TGI [3]: > 100 µM
- TGI [4]: > 100 µM
- TGI [5]: > 100 µM
- TGI [6]: > 100 µM
- TGI [7]: > 100 µM
- TGI [8]: > 100 µM
- TGI [9]: > 100 µM
- TGI [10]: > 100 µM
- TGI [11]: > 100 µM
- TGI [12]: > 100 µM
- TGI [13]: > 100 µM
- TGI [14]: > 100 µM
- TGI [15]: > 100 µM
- TGI [16]: > 100 µM
- TGI [17]: > 100 µM
- TGI [18]: > 100 µM
- TGI [19]: > 100 µM
- TGI [20]: > 100 µM
- TGI [21]: > 100 µM
- TGI [22]: > 100 µM
- TGI [23]: > 100 µM
- TGI [24]: > 100 µM
- TGI [25]: > 100 µM
- TGI [26]: > 100 µM
- TGI [27]: > 100 µM
- TGI [28]: > 100 µM
- TGI [30]: > 100 µM
- TGI [31]: > 100 µM
- TGI [32]: > 100 µM
- TGI [33]: > 100 µM
- TGI [34]: > 100 µM
- TGI [35]: > 100 µM
- TGI [36]: > 100 µM
- TGI [37]: > 100 µM
- TGI [38]: > 100 µM
- TGI [39]: > 100 µM
- TGI [40]: > 100 µM
- TGI [41]: > 100 µM
- TGI [42]: > 100 µM
- TGI [43]: > 100 µM
- TGI [44]: > 100 µM
- TGI [45]: > 100 µM
- TGI [46]: > 100 µM
- TGI [47]: > 100 µM
- TGI [50]: > 100 µM
- TGI [51]: > 100 µM
- TGI [52]: > 100 µM
- TGI [53]: > 100 µM
- TGI [54]: > 100 µM
- TGI [55]: > 100 µM
- TGI [56]: > 100 µM
- TGI [57]: > 100 µM
- TGI [58]: > 100 µM

Compound: O=C1c2c(c(-c3ccccc3)c(-c3ccccc3)c(-c3ccccc3)c2-c2ccccc2)C(=O)N1c1cccc(Br)c1
- TGI [1]: > 100 µM
- TGI [2]: > 100 µM
- TGI [3]: > 100 µM
- TGI [4]: > 100 µM
- TGI [5]: > 100 µM
- TGI [6]: > 100 µM
- TGI [7]: > 100 µM
- TGI [8]: > 100 µM
- TGI [9]: > 100 µM
- TGI [10]: > 100 µM
- TGI [11]: > 100 µM
- TGI [12]: > 100 µM
- TGI [13]: > 100 µM
- TGI [14]: > 100 µM
- TGI [15]: > 100 µM
- TGI [16]: > 100 µM
- TGI [17]: > 100 µM
- TGI [18]: > 100 µM
- TGI [19]: > 100 µM
- TGI [20]: > 100 µM
- TGI [21]: > 100 µM
- TGI [22]: > 100 µM
- TGI [24]: > 100 µM
- TGI [25]: > 100 µM
- TGI [26]: > 100 µM
- TGI [27]: > 100 µM
- TGI [29]: > 100 µM
- TGI [30]: > 100 µM
- TGI [31]: > 100 µM
- TGI [32]: > 100 µM
- TGI [33]: > 100 µM
- TGI [34]: > 100 µM
- TGI [35]: > 100 µM
- TGI [36]: > 100 µM
- TGI [37]: > 100 µM
- TGI [38]: > 100 µM
- TGI [39]: > 100 µM
- TGI [40]: > 100 µM
- TGI [41]: > 100 µM
- TGI [42]: > 100 µM
- TGI [44]: > 100 µM
- TGI [45]: > 100 µM
- TGI [46]: > 100 µM
- TGI [47]: > 100 µM
- TGI [48]: > 100 µM
- TGI [49]: > 100 µM
- TGI [50]: > 100 µM
- TGI [51]: > 100 µM
- TGI [52]: > 100 µM
- TGI [53]: > 100 µM
- TGI [54]: > 100 µM
- TGI [55]: > 100 µM
- TGI [56]: > 100 µM
- TGI [57]: > 100 µM
- TGI [58]: > 100 µM
